# Reference: PMC11547513, “Design, Synthesis and Biological Activity Evaluation of β-Carboline Derivatives Containing Nitrogen Heterocycles” (Molecules, 2024)
# Like-named read-outs stand apart in the source and are kept apart here.
# Key:
# [1] = tested on: PC-3 (human prostate cancer cell); assay: MTT assay, in vitro cytotoxicity on PC-3
# Description: (§5) Cells were purchased from the Cell Bank of the Chinese Academy of Sciences (Kunming, China).
# [2] = tested on: A549 (human lung cancer cell); assay: MTT assay, in vitro cytotoxicity on A549; settings: for IC50: A549, read-out: IC50 (Mean ± S.D.), A549
# Description: as §5
# [3] = tested on: K562 (human chronic myeloid leukemia cell); assay: MTT assay, in vitro cytotoxicity on K562; settings: Homo sapiens; for inhibition at 10 µM: K562, read-out: Inhibitory Activity/% at 10 μM, K562
# Description: as §5
# [4] = tested on: T47D (human breast cancer cell); assay: MTT assay, in vitro cytotoxicity on T47D; settings: for IC50: read-out: IC50 (Mean ± S.D.), T47D
# Description: as §5
# [5] = tested on: Hek-293T (human embryonic kidney cells); assay: MTT assay, in vitro cytotoxicity on normal Hek-293T; settings: read-out: Inhibitory Activity/% at 10 μM, Hek-293T
# Description: as §5
# [6] = Observation of water solubility / precipitation during the cell experiments; settings: during antitumor activity measurement
# [7] = tested on: PC-3 cells; assay: Wound healing assay; type: cell-based, human; settings: 30 μM, 24 h; control group 46.41%
# Procedure: Given that cell migration plays a pivotal role in tumor cell invasion, to further validate the impact of compound 8q on PC-3 cell motility, a wound healing assay was conducted. […] These findings underscore the potent inhibitory effect of compound 8q on the motility of PC-3 cells. […]
# (§1) a wound healing assay was performed using the method we previously reported1. In short, PC-3 cells were seeded in a six-well plate at a density of 10 × 105 and incubated at a constant temperature of 37 ℃ and 5% CO2 for 24 h. Then the pipette tip was used to create a uniform wound on the surface of cells. Subsequently, after cleaning twice with PBS, the scratch healing of the 8q treatment group and the positive drug treatment […]
# (§2) was used to measure and quantify cell migration. […]
# [8] = tested on: PC-3 cells; assay: Annexin V-FITC/PI apoptosis, flow cytometry; type: cell-based, human; settings: 30 μM
# Description: (§3) Apoptosis is an important target for antitumor therapy. To explore the antitumor mechanism of compound 8q, cell apoptosis was detected using flow cytometry. […] Moreover, reactive oxygen species (ROS) play a significant role in cell growth, differentiation and apoptosis. Excessive ROS can cause oxidative damage and lead to cell apoptosis. […]
# 2.3.The effect of compound 8q on cell apoptosis
# We used Annexin V-FITC/ PI double staining to evaluate cellular apoptosis via flow cytometry to figure out if apoptosis participates in the inhibition of cell growth.
# PC-3 cells were seeded in a six-well plate at a density of 3 × 105, and cultured at 37 ℃ and 5% CO2 for 24 h before adding 10 μM. 20 μM and 30 μM compound 8q and 30 μM Harmine to each well. After 48 h, the cells were collected and stained and incubated flowing the manufacturer ’s protocol of the Annexin V-FITC/PI Apoptosis Detection Kit (Solarbio, Beijing, China). After completion, the cells were immediately detected on the Flow Cytometry (Solarbio, Beijing, China). The experimental results were processed using Flow Jo and Prism 7.04 software. […]
# [9] = tested on: PC-3 cells; assay: Intracellular ROS assay (DCFH-DA, flow cytometry); type: cell-based, human; settings: 30 μM, 24 h; negative control MFI 19.8
# Procedure: as §3, §1, §2
# PC-3 cells were seeded in a six-well plate at a density of 3 × 105, and cultured at 37 ℃ and 5% CO2 for 24 h before adding 10 μM. […] After completion, the cells were immediately detected on the Flow Cytometry (Solarbio, Beijing, China). […]
# at 37 ° C for 20 min. Subsequently, the staining solution was wash off with basic culture medium and detected the fluorescence intensity using the flow cytometer. The data was analyzed and obtained through Flow Jo and Prism 7.04 software. […]
# (§4) The distribution of cycles was analyzed by Flow Jo and Prism 7.04 software. […]
# [10] = tested on: PC-3 cells; assay: Cell cycle assay (PI, flow cytometry); type: cell-based, human; settings: 30 μM, 24 h
# Procedure: To analyze the effect of compound 8q on cell cycle, the cycle of PC-3 cells was detected after being treated with compound 8q for 24 h (Figure 5). […] In addition, Cyclin D1, a cell cycle-related protein, is a key regulator of cycle progression, mainly regulating G1/S phase transition. […] In summary, compound 8q can arrest cells in the G0/G1 phase. […]
# 2.5. Cell cycle arrest of compound 8q on PC-3
# To determine the effect of compound 8q on the cell cycle distribution of PC-3 cell, we used our previous method with slight modifications2. Briefly, cells were incubated in a six-well plate with a density of 3 × 105 at 37 ℃ and 5% CO2 for 24 h, followed by the addition of different concentrations of compound 8q for further incubation for 24 h.
# Next, the cells were collected and washed twice with PBS. 75% anhydrous ethanol was used to immobilize the cells under overnight conditions at 4 ℃. Subsequently, PBS washed cells, and RNase from the cell cycle assay kit (Solarbio, Beijing, China) was added and incubated in a constant temperature (37 ℃) water bath for 30 min. Then PI was added under dark conditions and incubated at 4 ℃ for another half hour to detect.
# as §4
smiles,measurement,setting,value
COc1cc(-c2nc(-c3nnc(SCC(=O)N4CCN(c5ncccn5)CC4)o3)cc3c2[nH]c2ccccc23)cc(OC)c1OC [Compound 8g],IC50,"[1]; Homo sapiens, read-out: IC50 (Mean ± S.D.), PC-3, average of three replicates",< 10 µM
same,inhibition at 10 µM,"[1]; Homo sapiens, read-out: Inhibitory Activity/% at 10 μM, PC-3, Table 2 (8 series), 10 μM, average of three replicates, ""/"" means no anticancer activity",45.4 ± 0.82%
same,IC50,"[1]; read-out: IC50 (Mean ± S.D.), PC-3, average of three replicates",9.56 ± 1.43 µM
same,IC50,[2],> 40 µM
same,inhibition at 10 µM,"[2]; A549, read-out: Inhibitory Activity/% at 10 μM, A549",35.8 ± 1.17%
same,IC50,"[3]; K562, read-out: IC50 (Mean ± S.D.), K562, average of three replicates",> 40 µM
same,inhibition at 10 µM,[3],6.38 ± 0.52%
same,IC50,[4],> 40 µM
same,inhibition at 10 µM,"[4]; read-out: Inhibitory Activity/% at 10 μM, T47D",40.6 ± 4.48%
same,inhibition at 10 µM,[5],29 ± 4.56%
same,Precipitation observed under microscopy,[6],precipitate crystals
"COc1ccc2c(c1)[nH]c1c(C)nccc12 [Harmine, reference compound]",Migration rate of PC-3 cells,[7],21.51%
same,Total apoptosis rate in PC-3 cells,[8]; 48 h,65.96%
same,Annexin V-FITC/PI flow cytometry quadrant Q1,[8]; Figure 4A,0.21
same,Annexin V-FITC/PI flow cytometry quadrant Q2,[8]; Figure 4A,35.4
same,Annexin V-FITC/PI flow cytometry quadrant Q3,[8]; Figure 4A,34.2
same,Annexin V-FITC/PI flow cytometry quadrant Q4,[8]; Figure 4A,30.2
same,ROS mean fluorescence intensity (MFI) value,[9],37.9
same,"Cell cycle distribution, S phase",[10]; negative control 20.8%,26.4%
same,"Cell cycle distribution, G2/M phase",[10]; negative control 23.6%,49.0%
same,"Cell cycle distribution, G0/G1 phase",[10]; negative control 50.6%,17.3%
same,IC50,"[1]; Homo sapiens, read-out: IC50 (Mean ± S.D.), PC-3",24.4 ± 4.45 µM
same,inhibition at 10 µM,"[1]; Homo sapiens, read-out: Inhibitory Activity/% at 10 μM, PC-3",14.5 ± 1.42%
same,IC50,[2],25.9 ± 4.78 µM
same,inhibition at 10 µM,"[2]; A549, read-out: Inhibitory Activity/% at 10 μM, A549, Table 1 (7 series), 10 μM, average of three replicates, ""/"" means no anticancer activity",31 ± 2.81%
same,inhibition at 10 µM,"[2]; A549, read-out: Inhibitory Activity/% at 10 μM, A549, Table 2 (8 series), 10 μM, average of three replicates, ""/"" means no anticancer activity",31.2 ± 2.67%
same,IC50,"[3]; K562, read-out: IC50 (Mean ± S.D.), K562",15.7 ± 2.27 µM
same,inhibition at 10 µM,[3],36 ± 2.77%
same,IC50,[4],38.5 ± 1.17 µM
same,inhibition at 10 µM,"[4]; read-out: Inhibitory Activity/% at 10 μM, T47D, Table 1 (7 series), 10 μM, average of three replicates, ""/"" means no anticancer activity",51.3 ± 4.58%
same,inhibition at 10 µM,"[4]; read-out: Inhibitory Activity/% at 10 μM, T47D, Table 2 (8 series), 10 μM, average of three replicates, ""/"" means no anticancer activity",48.8 ± 2.37%
same,inhibition at 10 µM,[5],29.1 ± 3.19%
